# US20250375473A1, “Pharmaceutical composition for treating cancer comprising an ionic compound having metal ion binding thereto” (METAFINES.CO.LTD., priority 2018, published 2025)
# Where two headings read alike, the source gives them in different places.
# Columns and labels:
# [1] = test system: SW480; assay: Hetero salts vs homo salts, cell viability and cytotoxicity, SW480; assay type: cell-based; settings: for viability at 5000 µM: SW480, read-out: cell viability, SW480 (5 mM)
# Procedure: (§1) Hetero salts prepared according to the examples (ASCA101, ASCA201) and homo salts were applied to colorectal cancer cell lines, and their effects on cell viability and cytotoxicity were evaluated.
# (§2) Herein, “Na-ASC” refers to sodium ascorbate, “Na-DCA” refers to sodium dichloroacetate, “Ca (ASC) 2” refers to calcium ascorbate, “Ca (DCA) 2” refers to calcium dichloroacetate, and “Ca (LA) 2” refers to calcium lactate.
# [2] = test system: DLD-1; assay: Hetero salts vs homo salts, cell viability and cytotoxicity, DLD-1; assay type: cell-based; settings: for viability at 10000 µM: DLD-1, read-out: cell viability, DLD-1 (10 mM)
# Procedure: as §1, §2
# [3] = test system: HCT-116 cell; assay: IC50 of each drug alone, 48 h, HCT-116; assay type: cell-based, human
# Procedure: (§3) Then, various concentration of Example or chemical anticancer drugs (Fluorouracil (5-FU), SN-38, Paclitaxel (PTX)) were treated thereto alone.
# [4] = test system: ovarian cancer cell line (A2780); assay: MTT assay, 48 h, A2780
# Procedure: (§5) 7 cell lines were aliquoted to each well of a 96-well plate at 5×10^3 cells, and cultured for 24 hours. […] The drug-treated cells were cultured in an incubator (37° C., 5% CO2) for 48 hours, and 5 mg/ ? MTT reagent 10 ? was added to each well and cultured for additional 4 hours. Then, culture medium was removed and DMSO 100 ? was treated to dissolve the MTT stained precipitate, and absorbance was measured at 540 nm with a microplate reader.
# [5] = test system: human colorectal cancer cell lines (HCT-116 and HT-29); assay: Change in ascorbic acid level in cancer cells; assay type: cell-based; settings: 1 mM; 24 h; lysate; vs untreated control
# Procedure: After culture, the cultured cancer cells were pulverized with a homogenizer and centrifuged, and the concentration of ascorbic acid contained in the lysate was measured using an ascorbic acid assay kit (Biovision, San Francisco, CA).
# [6] = test system: breast cancer cell line (MDA-MB-231); assay: MTT assay, 72 h, breast cancer cell line; assay type: cell-based; settings: for IC50: Homo sapiens, MDA-MB-231, 72 h; for IC50 of Breast cancer cell line: MDA-MB-231, 72 h, MTT
# Procedure: (§4) The calcium salts of Examples 1 to 3 were added to each well by concentration (20 mg/ ? , mg/ ? , 0.8 mg/ ? , 0.16 mg/ ? , 0.032 mg/ ? , 0.0064 mg/ ? , 0.00128 mg/ ? , 0.000256 mg/ ? ). […] The supernatant was removed using a centrifuge, DMSO 200 ? was added to each well to dissolve the MTT stained precipitate, and OD540 value was measured at 540 nm with an ELISA reader.
# [7] = test system: brain cancer cell line (U87MG); assay: MTT assay, 72 h, brain cancer cell line; assay type: cell-based; settings: for IC50: Homo sapiens, U-87 MG
# Procedure: as §4
# [8] = test system: lung cancer cell line (A-549); assay: MTT assay, 48 h, A549
# Procedure: as §5
# [9] = test system: colorectal cancer cell line (DLD-1); assay: MTT assay, 72 h, colorectal cancer cell line; assay type: cell-based; settings: for IC50: Homo sapiens
# Procedure: as §4
# [10] = test system: colorectal cancer cell line (HCT-116); assay: MTT assay, 48 h, HCT-116; settings: for IC50: Homo sapiens, HCT-116, 48 h
# Procedure: as §5
# [11] = test system: pancreatic cancer cell line (PANC-1); assay: MTT assay, 48 h, PANC-1
# Procedure: as §5
# [12] = test system: liver cancer cell line (HepG2); assay: MTT assay, 48 h, HepG2
# Procedure: as §5
# [13] = test system: stomach cancer cell line (SNU-638); assay: MTT assay, 48 h, SNU-638
# Procedure: as §5
# [14] = test system: colorectal cancer cell line (HT-29); assay: MTT assay, 48 h, HT-29
# Procedure: as §5
# [15] = test system: PDH enzyme; assay: Time-dependent PDH enzyme activity in cancer cells; assay type: cell-based; settings: DLD-1 and HT-29 cancer cells; FIG. 29
# [16] = test system: poly (ADP-ribose) polymerase 1 (PARP-1); assay: Western blot, PARP-1 expression in HCT-116; assay type: cell-based, human; settings: 24 h
# Procedure: The cultured cancer cells were pulverized with a homogenizer and centrifuged, and the expression levels of poly (ADP-ribose) polymerase 1 (PARP-1), β-catenin, VEGF and β-actin proteins contained in the lysate were measured using Western blot.
# [17] = test system: HT-29 cell; assay: IC50 of each drug alone, 48 h, HT-29; assay type: cell-based, human
# Procedure: as §3
# [18] = test system: DLD-1 cell; assay: IC50 of each drug alone, 48 h, DLD-1; assay type: cell-based
# Procedure: as §3
# [19] = Homo sapiens, SW480, read-out: cytotoxicity, SW-480
# [20] = Homo sapiens, DLD-1, read-out: cytotoxicity, DLD-1
# [21] = read-out: IC50 value, HCT-116 cell
# [22] = Homo sapiens, A2780, 48 h, read-out: IC50 mM of A2780 Ovarian cancer
# [23] = Homo sapiens, A2780, 48 h, read-out: IC50 of A2780 Ovarian cancer (mg/ml)
# [24] = Homo sapiens, A549, 48 h, read-out: IC50 mM of A549 Lung cancer
# [25] = Homo sapiens, A549, 48 h, read-out: IC50 of A549 Lung cancer (mg/ml)
# [26] = read-out: IC50 mM of HCT-116 Colorectal cancer cell line
# [27] = read-out: IC50 of HCT-116 Colorectal cancer cell line (mg/ml)
# [28] = Homo sapiens, PANC-1, 48 h, read-out: IC50 mM of PANC-1 Pancreatic cancer
# [29] = Homo sapiens, PANC-1, 48 h, read-out: IC50 of PANC-1 Pancreatic cancer (mg/ml)
# [30] = Homo sapiens, HepG2, 48 h, read-out: IC50 mM of HepG2 Liver cancer
# [31] = Homo sapiens, HepG2, 48 h, read-out: IC50 of HepG2 Liver cancer (mg/ml)
# [32] = Homo sapiens, SNU-638, 48 h, read-out: IC50 mM of SNU-638 Stomach cancer
# [33] = Homo sapiens, SNU-638, 48 h, read-out: IC50 of SNU-638 Stomach cancer (mg/ml)
# [34] = Homo sapiens, HT-29, 48 h, read-out: IC50 mM of HT-29 Colorectal cancer cell line
# [35] = Homo sapiens, HT-29, 48 h, read-out: IC50 of HT-29 Colorectal cancer cell line (mg/ml)
# [36] = Homo sapiens, HCT-116, read-out: IC50 value, HCT-116 cell
compound,measurement,setting,value
"O=C1O[C@H]([C@@H](O)CO)C([O-])=C1O.[Na+] [Na-ASC, sodium ascorbate]",viability at 5000 µM,[1]; Homo sapiens,40.8%
same,IC50,[1]; [19],3000 µM
same,viability at 10000 µM,[2]; Homo sapiens,65.3%
same,IC50,[2]; [20],9600 µM
CCc1c2c(nc3ccc(O)cc13)-c1cc3c(c(=O)n1C2)COC(=O)[C@]3(O)CC [SN-38],IC50,[3]; [21],0.25 µM
calcium dichloroacetate [Ca(DCA)2],"cell viability, SW480 (5 mM)",[1],105.98
same,"cell viability, DLD-1 (10 mM)",[2],62.53
"O=C1O[C@H]([C@@H](O)CO)C(O)=C1O [ascorbic acid, reference compound]",IC50,[4]; [22],0.15 mM
same,IC50,[4]; [23],0.05 mg/mL
same,ascorbic acid concentration in cancer cells,[5],lower level of increased ascorbic acid concentration
same,IC50,[6]; read-out: IC50 of Breast cancer cell line,0.06 mg/mL
same,IC50,"[7]; U87MG, MTT, read-out: IC50 of Brain cancer cell line",0.9 mg/mL
same,IC50,[8]; [24],> 5 mM
same,IC50,[8]; [25],> 1.7 mg/mL
same,IC50,"[9]; DLD-1, 72 h, MTT, read-out: IC50 of Colorectal cancer cell line",0.09 mg/mL
same,IC50,[10]; [26],0.27 mM
same,IC50,[10]; [27],0.09 mg/mL
same,IC50,[11]; [28],0.37 mM
same,IC50,[11]; [29],0.13 mg/mL
same,IC50,[12]; [30],4.2 mM
same,IC50,[12]; [31],1.44 mg/mL
same,IC50,[13]; [32],2.48 mM
same,IC50,[13]; [33],0.85 mg/mL
same,IC50,[14]; [34],0.93 mM
same,IC50,[14]; [35],0.32 mg/mL
"O=C(O)C(Cl)Cl [Dichloroacetic acid, dichloroacetic acid, reference compound]",IC50,[4]; [22],> 5 mM
same,IC50,[4]; [23],> 1.7 mg/mL
same,time-dependent PDH activity,[15],peaked at 6 hours post-treatment and subsequently declined
same,IC50,[6]; read-out: IC50 of Breast cancer cell line (mg/ml),0.43 mg/mL
same,IC50,[7]; read-out: IC50 of Brain cancer cell line (mg/ml),3.71 mg/mL
same,IC50,[8]; [24],> 5 mM
same,IC50,[8]; [25],> 1.7 mg/mL
same,IC50,"[9]; DLD-1, 72 h, read-out: IC50 of Colorectal cancer cell line (mg/ml)",1.21 mg/mL
same,IC50,[10]; [26],> 5 mM
same,IC50,[10]; [27],> 1.7 mg/mL
same,IC50,[11]; [28],> 5 mM
same,IC50,[11]; [29],> 1.7 mg/mL
same,IC50,[12]; [30],> 5 mM
same,IC50,[12]; [31],> 1.7 mg/mL
same,IC50,[13]; [32],> 5 mM
same,IC50,[13]; [33],> 1.7 mg/mL
same,IC50,[14]; [34],> 5 mM
same,IC50,[14]; [35],> 1.7 mg/mL
"O=c1[nH]cc(F)c(=O)[nH]1 [Fluorouracil (5-FU), Fluorouracil]",IC50,[3]; [36],6 µM
"O=C([O-])C(Cl)Cl.[Na+] [Na-DCA, sodium dichloroacetate]",viability at 5000 µM,[1]; Homo sapiens,99.8%
same,IC50,[1]; [19],> 5000 µM
same,viability at 10000 µM,[2]; Homo sapiens,75.4%
same,IC50,[2]; [20],> 10000 µM
"CC(O)C(=O)[O-].O=C([O-])C(Cl)Cl.[Ca+2] (stereo not shown) [Example 3, calcium salts of dichloroacetic acid and lactate]",concentration at which expression level of full length PARP-1 was decreased the most,[16],0.3 mg/mL
same,IC50 of Breast cancer cell line,[6],50 µg/mL
same,IC50 of Brain cancer cell line,"[7]; U87MG, MTT",800 µg/mL
same,IC50 of Colorectal cancer cell line,"[9]; DLD-1, 72 h, MTT",860 µg/mL
"CC(=O)O[C@H]1C(=O)[C@@]2(C)[C@H]([C@H](OC(=O)c3ccccc3)[C@]3(O)C[C@H](OC(=O)[C@H](O)[C@@H](NC(=O)c4ccccc4)c4ccccc4)C(C)=C1C3(C)C)[C@]1(OC(C)=O)CO[C@@H]1C[C@@H]2O [Paclitaxel (PTX), Paclitaxel]",IC50,[3]; [36],0.0078 µM
calcium ascorbate [Ca(ASC)2],"cell viability, SW480 (5 mM)",[1],33.19
same,ascorbic acid concentration in cancer cells,[5],lower level of increased ascorbic acid concentration
same,"cell viability, DLD-1 (10 mM)",[2],27.51
"CC(O)C(=O)[O-].O=C1O[C@H]([C@@H](O)CO)C([O-])=C1O.[Ca+2] [Example 2, calcium salts of ascorbic acid and lactate]",IC50,[17],1800 µM
same,IC50,[1],2600 µM
same,IC50 of A2780 Ovarian cancer (mg/ml),"[4]; 48 h, MTT, value in brackets",(0.05) mg/ml
same,IC50,"[4]; read-out: IC50 mM of A2780 Ovarian cancer, 48 h, MTT",0.14 mM
same,ascorbic acid concentration in cancer cells,[5],increased
same,concentration at which expression level of full length PARP-1 was decreased the most,[16],0.34 mg/mL
same,IC50 of Breast cancer cell line,[6],50 µg/mL
same,IC50 of Brain cancer cell line,"[7]; U87MG, MTT",600 µg/mL
same,IC50,[2],8600 µM
same,IC50 of A549 Lung cancer (mg/ml),"[8]; 48 h, MTT, value in brackets",(1.06) mg/ml
same,IC50,"[8]; read-out: IC50 mM of A549 Lung cancer, 48 h, MTT",3.1 mM
same,IC50,[3]; [21],430 µM
same,IC50 of Colorectal cancer cell line,"[9]; DLD-1, 72 h, MTT",70 µg/mL
same,IC50 of HCT-116 Colorectal cancer cell line (mg/ml),"[10]; 48 h, MTT, value in brackets",(0.11) mg/ml
same,IC50,[18],340 µM
same,IC50 of PANC-1 Pancreatic cancer (mg/ml),"[11]; 48 h, MTT, value in brackets",(0.14) mg/ml
same,IC50,"[11]; read-out: IC50 mM of PANC-1 Pancreatic cancer, 48 h, MTT",0.4 mM
same,IC50 of HepG2 Liver cancer (mg/ml),"[12]; 48 h, MTT, value in brackets",(0.79) mg/ml
same,IC50,"[12]; read-out: IC50 mM of HepG2 Liver cancer, 48 h, MTT",2.3 mM
same,IC50 of SNU-638 Stomach cancer (mg/ml),"[13]; 48 h, MTT, value in brackets",(0.49) mg/ml
same,IC50,"[13]; read-out: IC50 mM of SNU-638 Stomach cancer, 48 h, MTT",1.44 mM
same,IC50 of HT-29 Colorectal cancer cell line (mg/ml),"[14]; 48 h, MTT, value in brackets",(0.23) mg/ml
same,IC50,"[14]; read-out: IC50 mM of HT-29 Colorectal cancer cell line, 48 h, MTT",0.66 mM
